Patent publication US20250382556A1, “MODULATION OF THE BRANCHED-CHAIN METABOLITE CONTENT OF FRUITS AND VEGETABLES” (BOARD OF TRUSTEES OF MICHIGAN STATE UNIVERSITY, priority 2024, published 2025)

Test system: ripe ‘Red Delicious’ apple fruit
Test: Precursor (isoleucine, α-ketoacid) content of ripe apple peel via derivatization and GCMS, time course
Type: in vivo, Malus x domestica Borkh.
Conditions: 1 mM rimsulfuron
Protocol: ‘Red Delicious’ apple fruit held in refrigerated air for 5 months (see above) plus 1 day at 22° C. and at an advanced ripeness stage (‘ripe’) were treated with rimsulfuron (1 mM) with 0.2% Tween 20 on day 0 of the study and for the next three consecutive days as above described. The fruit were evaluated daily for volatile emissions (see below) for eight days. On days 0, 2, 4, and 7, representative treated and untreated fruit were selected for tissue collection for metabolite analysis (see below). On day 7, samples of fruit peel were fed, as described above, with water or 20 mM isoleucine or α-keto-β-methylvalerate.
To simultaneously quantify branched-chain α-ketoacids and amino acids, 100 mg of ground frozen tissue was extracted in 2 mL of 1:1 acetonitrile: water containing 13 μM U-^13C, ^15N labeled amino acids (MilliporeSigma) as internal standard for 15 min in a 65° C. water bath. […]
One microliter of derivatized sample was analyzed with a GC (Agilent 6890) coupled to a time-of-flight MS (Pegasus II, LECO). […]
Compounds were identified by retention time and spectra of derivatized authenticated standards. Quantification was performed by comparison of the ratios of peak areas of metabolites to labeled internal standards. […] Calibration standards consisted of equimolar mixtures of the analyzed compounds that mimicked 15-0.15 nmoles of analyte in the final derivatized sample. […]

Structure (SMILES): CCS(=O)(=O)c1cccnc1S(=O)(=O)NC(=O)Nc1nc(OC)cc(OC)n1 [rimsulfuron, N-((4,6-dimethoxypyrimidin-2-yl)aminocarbonyl)-3-(ethylsulfonyl)-2-pyridinesulfonamide]
- isoleucine content, plateau, of control levels: 29.1%
- α-keto-β-methylvalerate content, plateau, of control levels: 51.1%
